Test results from patent EP2818471A1, “Nitrogen bicyclic compounds as inhibitors for Scyl1 and Grk5” (Max-Planck-Gesellschaft zur Förderung der Wissenschaften …, priority 2013, dated 2014).

Each compound was assayed on beta-TC6 cells (assay: Insulin HTRF assay, relative activity Ar normalized to sunitinib). Details: Mus musculus, normalized to positive control sunitinib (5 µM = 100%), Table 10.
Format: cell-based
Summary of the method: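 beta-TC6 cells (15k/well) were seeded for 24 or 48 h, washed and exposed to test compound or sunitinib (5 µM f.c.) in induction buffer with 0.5% DMSO for 2, 3 or 4 h at 37°C. Secreted insulin in the supernatant was measured by two-antibody HTRF after 120 min at RT. Ar = (V − 0% control)/(100% control − 0% control) × 100.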

Row | Structure (SMILES) | Emax [%]
1 | COc1cccc(C#Cc2ccc3nnc(-c4cccc(OC(F)(F)F)c4)n3c2)c1 [compound 194, 6-[2-(3-methoxyphenyl)ethynyl]-3-[3-(trifluoromethoxy)phenyl]-[1,2,4]triazolo[4,3-a]pyridine] | 20 to 50
2 | FC(F)(F)Oc1cccc(-c2nnc3ccc(-c4cccs4)cn23)c1 [compound 195, 6-(2-thienyl)-3-[3-(trifluoromethoxy)phenyl]-[1,2,4]triazolo[4,3-a]pyridine] | 50 to 100
3 | FC(F)(F)Oc1cccc(-c2nnc3ccc(C#Cc4ccccc4)cn23)c1 [compound 196, 6-(2-phenylethynyl)-3-[3-(trifluoromethoxy)phenyl]-[1,2,4]triazolo[4,3-a]pyridine] | 20 to 50
4 | Nc1cccc(-c2ccc3nnc(-c4cccc(Cl)c4)n3c2)c1 [compound 197, 3-[3-(3-chlorophenyl)-[1,2,4]triazolo[4,3-a]pyridin-6-yl]an iline] | 50 to 100
5 | Clc1cccc(-c2nnc3ccc(-c4ccc5c(c4)OCO5)cn23)c1 [compound 198, 6-(1,3-benzodioxol-5-yl)-3-(3-chlorophenyl)-[1,2,4]triazolo[4,3-a]pyridine] | 50 to 100
6 | Clc1cccc(-c2nnc3ccc(-c4ccncc4)cn23)c1 [compound 199, 3-(3-chlorophenyl)-6-(4-pyridyl)-[1,2,4]triazolo[4,3-a]pyridine] | 50 to 100
7 | Clc1cccc(-c2nnc3ccc(-c4cccnc4)cn23)c1 [compound 200, 3-(3-chlorophenyl)-6-(3-pyridyl)-[1,2,4]triazolo[4,3-a]pyridine] | 50 to 100
8 | CC(=O)Nc1ccc(-c2ccc3nnc(-c4cccc(Cl)c4)n3c2)cc1 [compound 202, N-[4-[3-(3-chlorophenyl)-[1,2,4]triazolo[4,3-a]pyridin-6-yl]phenyl]acetamide] | 20 to 50
9 | Clc1cccc(-c2nnc3ccc(-c4cncnc4)cn23)c1 [compound 203, 3-(3-chlorophenyl)-6-pyrimidin-5-yl-[1,2,4]triazolo[4,3-a]pyridine] | 20 to 50
10 | Clc1cccc(-c2nnc3ccc(-c4ncccn4)cn23)c1 [compound 204, 3-(3-chlorophenyl)-6-pyrimidin-2-yl-[1,2,4]triazolo[4,3-a]pyridine] | 10 to 20
11 | Clc1cccc(-c2nnc3ccc(-c4cncc5ccccc45)cn23)c1 [compound 205, 4-[3-(3-chlorophenyl)-[1,2,4]triazolo[4,3-a]pyridin-6-yl]isoquinoline] | 50 to 100
12 | N#Cc1ccc(-c2ccc3nnc(-c4cccc(O)c4)n3c2)cc1 [compound 206, 4-[3-(3-hydroxyphenyl)-[1,2,4]triazolo[4,3-a]pyridin-6-yl]benzonitrile] | 50 to 100
13 | Oc1cccc(-c2nnc3ccc(-c4ccc(F)cc4)cn23)c1 [compound 208, 3-[6-(4-fluorophenyl)-[1,2,4]triazolo[4,3-a]pyridin-3-yl]phenol] | 50 to 100
14 | Oc1cccc(-c2nnc3ccc(-c4cccc5ncccc45)cn23)c1 [compound 209, 3-[6-(5-quinolyl)-[1,2,4]triazolo[4,3-a]pyridin-3-yl]phenol] | 20 to 50
15 | COc1cc(-c2ccc3nnc(-c4cccc(C(F)(F)F)c4)n3c2)cc(OC)c1OC [compound 210, 3-[3-(trifluoromethyl)phenyl]-6-(3,4,5-trimethoxyphenyl)-[1,2,4]triazolo[4,3-a]pyridine] | 50 to 100
16 | CN(C)CCCNC(=O)c1ccc(-c2ccc3nnc(-c4cccc(C(F)(F)F)c4)n3c2)cc1 [compound 211, N-[3-(dimethylamino)propyl]-4-[3-[3-(trifluoromethyl)phenyl]-[1,2,4]triazolo[4,3-a]pyridin-6-yl]benzamide] | 20 to 50
17 | O=C(c1ccc(-c2ccc3nnc(-c4cccc(C(F)(F)F)c4)n3c2)cc1)N1CCOCC1 [compound 212, morpholino-[4-[3-[3-(trifluoromethyl)phenyl]-[1,2,4]triazolo[4,3-a]pyridin-6-yl]phenyl]methanone] | 20 to 50
18 | CN(C)C(=O)c1ccc(-c2ccc3nnc(-c4cccc(C(F)(F)F)c4)n3c2)cc1 [compound 213, N,N-dimethyl-4-[3-[3-(trifluoromethyl)phenyl]-[1,2,4]triazolo[4,3-a]pyridin-6-yl]benzamide] | 20 to 50
19 | Nc1ccc(-c2ccc3nnc(-c4cccc(C(F)(F)F)c4)n3c2)cn1 [compound 214, 5-[3-[3-(trifluoromethyl)phenyl]-[1,2,4]triazolo[4,3-a]pyridin-6-yl]pyridin-2-amine] | 20 to 50
20 | COc1cc(-c2nnc3ccc(-c4ccc(N5CCN(C)CC5)cc4)cn23)ccc1O [compound 215, 2-methoxy-4-[6-[4-(4-methylpiperazin-1-yl)phenyl]-[1,2,4]triazolo[4,3-a]pyridin-3-yl]phenol] | 20 to 50
21 | COc1ccc(-c2ccc3nnc(-c4ccc(O)c(OC)c4)n3c2)cn1 [compound 216, 2-methoxy-4-[6-(6-methoxy-3-pyridyl)-[1,2,4]triazolo[4,3-a]pyridin-3-yl]phenol] | 50 to 100
22 | COc1cc(-c2nnc3ccc(-c4cccc(F)c4)cn23)ccc1O [compound 217, 4-[6-(3-fluorophenyl)-[1,2,4]triazolo[4,3-a]pyridin-3-yl]-2-methoxy-phenol] | 50 to 100

Row | Structure (SMILES) | Emax [%]
23 | COc1cc(-c2nnc3ccc(-c4ccccc4C)cn23)ccc1O [compound 218, 2-methoxy-4-[6-(o-tolyl)-[1,2,4]triazolo[4,3-a]pyridin-3-yl]phenol] | 50 to 100
24 | COc1cc(-c2ccc3nnc(-c4ccoc4)n3c2)cc(OC)c1OC [compound 219, 3-(3-furyl)-6-(3,4,5-trimethoxyphenyl)-[1,2,4]triazolo[4,3-a]pyridine] | 50 to 100
25 | COc1ccc(-c2ccc3nnc(-c4ccoc4)n3c2)cc1 [compound 220, 3-(3-furyl)-6-(4-methoxyphenyl)-[1,2,4]triazolo[4,3-a]pyridine] | 50 to 100
26 | c1csc(-c2ccc3nnc(-c4ccoc4)n3c2)c1 [compound 221, 3-(3-furyl)-6-(2-thienyl)-[1,2,4]triazolo[4,3-a]pyridine] | 50 to 100
27 | N#Cc1cccc(-c2nnc3ccc(-c4ccccn4)cn23)c1 [compound 222, 3-[6-(2-pyridyl)-[1,2,4]triazolo[4,3-a]pyridin-3-yl]benzonitrile] | 20 to 50
28 | COc1ccc(-c2ccc3nnc(-c4ccccc4C)n3c2)cc1OC [compound 223, 6-(3,4-dimethoxyphenyl)-3-(o-tolyl)-[1,2,4]triazolo[4,3-a]pyridine] | 50 to 100
29 | Cc1ccccc1-c1nnc2ccc(-c3cccc(C(=O)NCCO)c3)cn12 [compound 224, N-(2-hydroxyethyl)-3-[3-(o-tolyl)-[1,2,4]triazolo[4,3-a]pyridin-6-yl]benzamide] | 10 to 20
30 | Cc1ccccc1-c1nnc2ccc(-c3ccc(C(N)=O)cc3)cn12 [compound 225, 4-[3-(o-tolyl)-[1,2,4]triazolo[4,3-a]pyridin-6-yl]benzamide] | 20 to 50
31 | c1nc(-c2nnc3ccc(-c4ccc(N5CCOCC5)cc4)cn23)cs1 [compound 226, 4-[4-(3-thiazol-4-yl-[1,2,4]triazolo[4,3-a]pyridin-6-yl)phenyl]morpholine] | 50 to 100
32 | CN(C)c1cccc(-c2ccc3nnc(-c4cscn4)n3c2)c1 [compound 227, N,N-dimethyl-3-(3-thiazol-4-yl-[1,2,4]triazolo[4,3-a]pyridin-6-yl)aniline] | 50 to 100
33 | Fc1ccc(-c2ccc3nnc(-c4cscn4)n3c2)cc1Cl [compound 228, 4-[6-(3-chloro-4-fluoro-phenyl)-[1,2,4]triazolo[4,3-a]pyridin-3-yl]thiazole] | 20 to 50
34 | c1cc2cc(-c3ccc4nnc(-c5cscn5)n4c3)ccc2[nH]1 [compound 229, 4-[6-(1H-indol-5-yl)-[1,2,4]triazolo[4,3-a]pyridin-3-yl]thiazole] | 50 to 100
35 | NC(=O)c1cccc(-c2ccc3nnc(-c4cscn4)n3c2)c1 [compound 230, 3-(3-thiazol-4-yl-[1,2,4]triazolo[4,3-a]pyridin-6-yl)benzamide] | 20 to 50
36 | COc1ccc(-c2ccc3nnc(-c4cscn4)n3c2)c(C)c1 [compound 231, 4-[6-(4-methoxy-2-methyl-phenyl)-[1,2,4]triazolo[4,3-a]pyridin-3-yl]thiazole] | 50 to 100
37 | O=S1(=O)CCN(CC#Cc2ccc3nnc(-c4cscn4)n3c2)CC1 [compound 232, 4-[3-(3-thiazol-4-yl-[1,2,4]triazolo[4,3-a]pyridin-6-yl)prop-2-ynyl]-1,4-thiazinane 1,1-dioxide] | 10 to 20
38 | Clc1ccccc1-c1ccc2nnc(-c3cscn3)n2c1 [compound 233, 4-[6-(2-chlorophenyl)-[1,2,4]triazolo[4,3-a]pyridin-3-yl]thiazole] | 50 to 100
39 | COc1cccc(-c2ccc3nnc(-c4cscn4)n3c2)c1 [compound 234, 4-[6-(3-methoxyphenyl)-[1,2,4]triazolo[4,3-a]pyridin-3-yl]thiazole] | 50 to 100
40 | COc1ccc(-c2ccc3nnc(-c4ccc(OCCCN(C)C)cc4)n3c2)cc1OC [compound 236, 3-[4-[6-(3,4-dimethoxyphenyl)-[1,2,4]triazolo[4,3-a]pyridin-3-yl]phenoxy]-N,N-dimethyl-propan-1-amine] | 50 to 100
41 | CN(C)CCCOc1ccc(-c2nnc3ccc(-c4ccc(Cl)cc4)cn23)cc1 [compound 237, 3-[4-[6-(4-chlorophenyl)-[1,2,4]triazolo[4,3-a]pyridin-3-yl]phenoxy]-N,N-dimethyl-propan-1-amine] | 20 to 50
42 | CN(C)CCCOc1ccc(-c2nnc3ccc(C#Cc4ccc(C(=O)N(C)C)cc4)cn23)cc1 [compound 238, 4-[2-[3-[4-[3-(dimethylamino)propoxy]phenyl]-[1,2,4]triazolo[4,3-a]pyridin-6-yl]ethynyl]-N,N-dimethyl-benzamide] | 20 to 50
43 | COc1cc(C#Cc2ccc3nnc(-c4ccc(OCCCN(C)C)cc4)n3c2)cc(OC)c1 [compound 239, 3-[4-[6-[2-(3,5-dimethoxyphenyl)ethynyl]-[1,2,4]triazolo[4,3-a]pyridin-3-yl]phenoxy]-N,N-dimethyl-propan-1-amine] | 20 to 50
